Experiment in all cases: KinomeScan profiling
What all share (type): binding

One assay deals with T1, EPHB4 (Homo sapiens, UniProt P54760).
T1 sequence (P54760 16-987): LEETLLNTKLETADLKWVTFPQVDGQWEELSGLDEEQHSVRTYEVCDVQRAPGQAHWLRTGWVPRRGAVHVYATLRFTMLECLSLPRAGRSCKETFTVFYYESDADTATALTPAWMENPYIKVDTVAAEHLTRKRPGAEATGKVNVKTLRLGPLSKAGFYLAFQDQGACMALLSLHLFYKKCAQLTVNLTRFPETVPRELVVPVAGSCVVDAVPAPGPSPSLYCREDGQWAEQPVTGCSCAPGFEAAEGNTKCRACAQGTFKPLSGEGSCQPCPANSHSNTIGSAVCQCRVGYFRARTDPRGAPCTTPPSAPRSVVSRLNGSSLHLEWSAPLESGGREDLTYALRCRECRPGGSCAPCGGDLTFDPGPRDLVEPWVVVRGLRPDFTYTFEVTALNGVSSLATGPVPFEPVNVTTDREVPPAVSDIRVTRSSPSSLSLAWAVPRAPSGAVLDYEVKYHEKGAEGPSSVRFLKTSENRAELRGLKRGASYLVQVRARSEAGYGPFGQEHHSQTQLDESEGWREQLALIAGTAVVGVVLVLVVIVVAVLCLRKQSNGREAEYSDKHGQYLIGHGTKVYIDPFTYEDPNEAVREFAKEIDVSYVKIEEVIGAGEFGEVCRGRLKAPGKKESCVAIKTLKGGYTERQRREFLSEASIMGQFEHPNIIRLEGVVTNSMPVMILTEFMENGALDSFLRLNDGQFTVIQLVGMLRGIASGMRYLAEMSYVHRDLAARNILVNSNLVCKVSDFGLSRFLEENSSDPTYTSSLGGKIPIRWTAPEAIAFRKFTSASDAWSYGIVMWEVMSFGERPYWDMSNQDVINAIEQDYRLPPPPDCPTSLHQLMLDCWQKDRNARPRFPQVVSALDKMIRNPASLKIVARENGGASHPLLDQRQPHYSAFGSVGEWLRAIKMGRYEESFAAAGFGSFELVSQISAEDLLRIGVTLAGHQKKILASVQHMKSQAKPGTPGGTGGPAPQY
The conditions noted are these: EPHB4, 1 μM; read-out: % control. The method, boiled down: (§1)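 Test agents were profiled at a single concentration of 1 μM (DMSO vehicle) on a near-complete set of 468 kinases. Signal is reported relative to vehicle (100%) and a fully displacing control (0%).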

The next assay deals with T2, PRKD1 (Homo sapiens, UniProt Q15139).
T2 sequence (Q15139 1-912): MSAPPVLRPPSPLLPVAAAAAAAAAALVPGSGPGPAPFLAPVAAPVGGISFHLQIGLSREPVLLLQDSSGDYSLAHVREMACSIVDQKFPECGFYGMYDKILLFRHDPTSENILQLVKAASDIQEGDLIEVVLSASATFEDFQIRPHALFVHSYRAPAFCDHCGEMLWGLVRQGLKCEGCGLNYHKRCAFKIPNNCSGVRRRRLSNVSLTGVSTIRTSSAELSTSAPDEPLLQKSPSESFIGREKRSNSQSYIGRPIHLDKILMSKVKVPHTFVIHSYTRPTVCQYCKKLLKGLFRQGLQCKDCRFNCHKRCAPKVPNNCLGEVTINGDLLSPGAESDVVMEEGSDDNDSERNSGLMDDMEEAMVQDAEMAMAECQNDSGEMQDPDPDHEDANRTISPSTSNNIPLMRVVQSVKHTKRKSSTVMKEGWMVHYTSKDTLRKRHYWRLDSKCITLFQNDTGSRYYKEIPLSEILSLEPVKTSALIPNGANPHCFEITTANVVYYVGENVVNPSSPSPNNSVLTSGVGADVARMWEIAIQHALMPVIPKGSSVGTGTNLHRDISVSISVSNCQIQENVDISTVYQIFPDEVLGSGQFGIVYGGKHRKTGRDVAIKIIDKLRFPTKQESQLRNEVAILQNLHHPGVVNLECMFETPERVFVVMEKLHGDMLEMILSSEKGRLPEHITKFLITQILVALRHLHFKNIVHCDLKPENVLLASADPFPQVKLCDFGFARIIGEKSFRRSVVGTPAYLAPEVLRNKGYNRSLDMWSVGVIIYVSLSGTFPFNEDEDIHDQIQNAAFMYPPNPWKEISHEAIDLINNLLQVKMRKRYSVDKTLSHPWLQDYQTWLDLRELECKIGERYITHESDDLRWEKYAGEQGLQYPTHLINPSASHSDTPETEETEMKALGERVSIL
Particulars: PRKD1, 1 μM; read-out: % control. The method, boiled down: as §1

The next assay concerns the target T3, DMPK (Homo sapiens, UniProt Q09013).
T3 sequence (Q09013 1-629): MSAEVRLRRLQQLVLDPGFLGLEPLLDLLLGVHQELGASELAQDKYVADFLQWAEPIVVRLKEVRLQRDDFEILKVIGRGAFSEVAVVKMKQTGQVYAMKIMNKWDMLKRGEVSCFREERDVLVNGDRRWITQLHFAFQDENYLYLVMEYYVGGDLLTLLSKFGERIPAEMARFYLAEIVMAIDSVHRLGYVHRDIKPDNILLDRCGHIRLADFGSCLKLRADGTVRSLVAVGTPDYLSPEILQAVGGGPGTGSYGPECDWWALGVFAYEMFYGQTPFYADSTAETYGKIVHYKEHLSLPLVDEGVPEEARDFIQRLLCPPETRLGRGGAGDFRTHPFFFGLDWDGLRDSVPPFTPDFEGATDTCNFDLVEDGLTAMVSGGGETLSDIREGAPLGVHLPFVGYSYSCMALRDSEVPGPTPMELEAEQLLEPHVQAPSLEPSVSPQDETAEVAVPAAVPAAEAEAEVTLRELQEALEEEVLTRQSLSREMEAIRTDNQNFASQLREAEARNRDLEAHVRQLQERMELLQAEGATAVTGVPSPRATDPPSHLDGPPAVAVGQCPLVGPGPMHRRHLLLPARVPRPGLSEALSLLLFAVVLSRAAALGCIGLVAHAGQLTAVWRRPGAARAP
Particulars: read-out: % control. A digest of the protocol: as §1

For `CNc1c(-c2cnn([C@H]3CCN(C(C)=O)C[C@@H]3F)c2)cnc2[nH]cc(Cl)c12` [Compound 77, 1-((3S,4S)-4-(4-(3-chloro-4-(methylamino)-1H-pyrrolo[2,3-b]pyridin-5-yl)-1H-pyrazol-1-yl)-3-fluoropiperidin-1-yl)ethan-1-one], the remaining binding at 1 µM on EPHB4 stood at 100%; at PRKD1 it was 58%; at DMPK, 36%.

As for `CNc1c(-c2ccc(C(=O)N3CCC(N4CCOCC4)CC3)cc2)cnc2[nH]cc(Cl)c12` [Compound 96, (4-(3-chloro-4-(methylamino)-1H-pyrrolo[2,3-b]pyridin-5-yl)phenyl)(4-morpholinopiperidin-1-yl)methanone], the values for the remaining binding at 1 µM on EPHB4, on PRKD1 and on DMPK were 100%, 19% and 36%, respectively.

As to `O=C(c1ccc(-c2cnc3[nH]cc(Cl)c3c2NC2CCCC2)cc1)N1CCC(N2CCOCC2)CC1` [Compound 101, (4-(3-chloro-4-(cyclopentylamino)-1H-pyrrolo[2,3-b]pyridin-5-yl)phenyl)(4-morpholinopiperidin-1-yl)methanone], the remaining binding at 1 µM was determined as 62% at EPHB4, 48% on PRKD1 and 52% on DMPK.

The values are drawn from patent publication US12275731B2, “Azaindole inhibitors of wild-type and mutant forms of LRRK2” (DANA-FARBER CANCER INSTITUTE, INC., priority 2018, dated 2025).
